According to patent publication US4476120A, “Thiolic derivatives of erythromycin having therapeutic activity, and pharmaceutical compositions containing them” (Sigma Tau Indistrie Farmaceutiche Riunites, p.A, priority 1982, dated 1984):
≈ marks a conversion by molar mass, not a printed value.

Assays:
[1] = test system: Staph. albus SS 03; format: cell-based; conditions: Brain Heart Infusion, estolate and RV11-RV15 previously hydrolized, unit assumed
[2] = test system: Staph. albus SS 04; format: cell-based; conditions: Brain Heart Infusion, estolate and RV11-RV15 previously hydrolized, unit assumed
[3] = test system: Staph. aureus SS 07; format: cell-based; conditions: Brain Heart Infusion, estolate and RV11-RV15 previously hydrolized, unit assumed
[4] = test system: Staph. aureus SS 08; format: cell-based; conditions: Brain Heart Infusion, estolate and RV11-RV15 previously hydrolized, unit assumed
[5] = test system: Staph. aureus SS 09; format: cell-based; conditions: Brain Heart Infusion, estolate and RV11-RV15 previously hydrolized, unit assumed
[6] = test system: Staph. aureus SS 10; format: cell-based; conditions: Brain Heart Infusion, estolate and RV11-RV15 previously hydrolized, unit assumed
[7] = test system: Strept. haemolyticus SS 17; format: cell-based; conditions: Brain Heart Infusion, estolate and RV11-RV15 previously hydrolized, unit assumed
[8] = test system: Strept. haemolyticus SS 18; format: cell-based; conditions: Brain Heart Infusion, estolate and RV11-RV15 previously hydrolized, unit assumed
[9] = test system: Strept. faecalis SS 19; format: cell-based; conditions: Brain Heart Infusion, estolate and RV11-RV15 previously hydrolized, unit assumed
[10] = test system: S. lutea ATCC 9341; format: cell-based; conditions: Brain Heart Infusion, estolate and RV11-RV15 previously hydrolized, unit assumed
[11] = test system: B. subtilis ATCC 6633; format: cell-based; conditions: Brain Heart Infusion, estolate and RV11-RV15 previously hydrolized, unit assumed
[12] = test system: B. subtilis SS 127; format: cell-based; conditions: Brain Heart Infusion, estolate and RV11-RV15 previously hydrolized, unit assumed
[13] = test system: B. cereus ATCC 11778; format: cell-based; conditions: Brain Heart Infusion, estolate and RV11-RV15 previously hydrolized, unit assumed
[14] = test system: B. anthranis SS 08; format: cell-based; conditions: Brain Heart Infusion, estolate and RV11-RV15 previously hydrolized, unit assumed
[15] = test system: Br. melitensis SS 19; format: cell-based; conditions: unit assumed
[16] = test system: Br. abortus SS 7; format: cell-based; conditions: Brain Heart Infusion, estolate and RV11-RV15 previously hydrolized, unit assumed
[17] = test system: Citrobacter SS 05; format: cell-based; conditions: Brain Heart Infusion, estolate and RV11-RV15 previously hydrolized, unit assumed
[18] = test system: Citrobacter SS 09; format: cell-based; conditions: Brain Heart Infusion, estolate and RV11-RV15 previously hydrolized, unit assumed
[19] = test system: S. infantis SS 08; format: cell-based; conditions: Brain Heart Infusion, estolate and RV11-RV15 previously hydrolized, unit assumed
[20] = test system: S. heidelberg SS 18; format: cell-based; conditions: Brain Heart Infusion, estolate and RV11-RV15 previously hydrolized, unit assumed
[21] = test system: E. cloacae SS 07; format: cell-based; conditions: Brain Heart Infusion, estolate and RV11-RV15 previously hydrolized, unit assumed
[22] = test system: E. aerogenes SS 011; format: cell-based; conditions: Brain Heart Infusion, estolate and RV11-RV15 previously hydrolized, unit assumed
[23] = test system: Ps. aeruginosa SS 10; format: cell-based; conditions: Brain Heart Infusion, estolate and RV11-RV15 previously hydrolized, unit assumed
[24] = test system: E. coli SS 04; format: cell-based; conditions: Brain Heart Infusion, estolate and RV11-RV15 previously hydrolized, unit assumed
[25] = test system: E. coli SS 05; format: cell-based; conditions: Brain Heart Infusion, estolate and RV11-RV15 previously hydrolized, unit assumed
[26] = test system: E. coli SS 06; format: cell-based; conditions: Brain Heart Infusion, estolate and RV11-RV15 previously hydrolized, unit assumed
[27] = test system: E. coli SS 07; format: cell-based; conditions: Brain Heart Infusion, estolate and RV11-RV15 previously hydrolized, unit assumed
[28] = test system: Pr. mirabilis SS 09; format: cell-based; conditions: Brain Heart Infusion, estolate and RV11-RV15 previously hydrolized, unit assumed
[29] = test system: Pr. vulgaris SS 10; format: cell-based; conditions: Brain Heart Infusion, estolate and RV11-RV15 previously hydrolized, unit assumed
[30] = test system: Kl. aerogenes SS 71; format: cell-based; conditions: Brain Heart Infusion, estolate and RV11-RV15 previously hydrolized, unit assumed
[31] = test system: H. tubercolosis SS 03; format: cell-based; conditions: Brain Heart Infusion, estolate and RV11-RV15 previously hydrolized, unit assumed
Text: (§1) In the following table I the MIC/ml values are indicated corresponding to the lowest concentration capable of inducing a complete inhibition of the bacterial development.

[32] = test system: Kl. pneumoniae SS 04; format: cell-based; conditions: Brain Heart Infusion, estolate and RV11-RV15 previously hydrolized, unit assumed
Text: as §1

[33] = test system: Sr. marcescens SS 03; format: cell-based; conditions: Brain Heart Infusion, estolate and RV11-RV15 previously hydrolized, unit assumed
[34] = test system: C. diphtheriae SS 19; format: cell-based; conditions: Brain Heart Infusion, estolate and RV11-RV15 previously hydrolized, unit assumed
[35] = test system: D. pneumoniae SS 23; format: cell-based; conditions: Brain Heart Infusion, estolate and RV11-RV15 previously hydrolized, unit assumed
[36] = test system: N. gonorreae SS 27; format: cell-based; conditions: Brain Heart Infusion, estolate and RV11-RV15 previously hydrolized, unit assumed
[37] = test system: N. meningitidis SS 04; format: cell-based; conditions: Brain Heart Infusion, estolate and RV11-RV15 previously hydrolized, unit assumed
[38] = test system: H. influentiae SS 02; format: cell-based; conditions: Brain Heart Infusion, estolate and RV11-RV15 previously hydrolized, unit assumed
[39] = test system: H. pertussis SS 03; format: cell-based; conditions: Brain Heart Infusion, estolate and RV11-RV15 previously hydrolized, unit assumed
[40] = test system: C. albicans SS 04; format: cell-based; conditions: Brain Heart Infusion, estolate and RV11-RV15 previously hydrolized, unit assumed
[41] = test system: Cl. tetani SS 17; format: cell-based; conditions: Brain Heart Infusion, estolate and RV11-RV15 previously hydrolized, unit assumed
[42] = test system: B. anthranis SS 09; format: cell-based; conditions: B. anthranis SS 09 (14 bis); Brain Heart Infusion; estolate and RV11-RV15 previously hydrolized; unit assumed
[43] = Acute toxicity; format: in vivo; conditions: mouse, in vivo, po; os; mortality 10 days after treatment; mice; read-out: LD50 (reliability limits)
Protocol: The acute toxicity was assessed in Swiss white mice by oral and intravenous route. The LD50 values have been calculated by the methods of Probits, starting from the mortality recorded 10 days after the treatment.

[44] = test system: Staph. aureus SS 07; experiment: Experimental infection induced by Staph. aureus SS 07; format: in vivo, Swiss white mice; conditions: Staphylococcus aureus, SS07, in Mus musculus, po, 168 h, os; Staph. aureus SS 07; mg/kg of erythromycin; survival after 7 days; read-out: ED50 (reliability limits)
Protocol: (§2) Swiss white mice of 20 g body weight were used, infected by parenteral administration of lethal amounts of pathogenic […] of Staph. aureus SS 07 and D. pneumoniae SS 23.
(§3) The antibiotics were administered at the time of injecting the infecting germ and 6 and 24 hours later. On the basis of the survival after 7 days, the ED50 values were determined, as reported in the following table II and III, wherein the reliability limits are indicated in brackets.

[45] = test system: D. pneumoniae SS 23; experiment: Experimental infection induced by D. pneumoniae SS 23; format: in vivo, Swiss white mice; conditions: Streptococcus pneumoniae, SS23, in Mus musculus, po, 168 h, os; D. pneumoniae SS 23; mg/kg of erythromycin; survival after 7 days; read-out: ED50 (reliability limits)
Protocol: as §2, §3

[46] = Hematic levels in the rat (absorption by oral route); conditions: 100 mg/kg as erythromycin, average, 100 mg/kg

For CC[C@H]1OC(=O)[C@H](C)[C@@H](O[C@H]2C[C@@](C)(OC)[C@@H](O)[C@H](C)O2)[C@H](C)[C@@H](O[C@@H]2O[C@H](C)C[C@H](N(C)C)[C@H]2O)[C@](C)(O)C[C@@H](C)C(=O)[C@H](C)[C@@H](O)[C@]1(C)O [erythromycin], the MIC [1] was 0.05 µg/mL (≈ 0.0681 µM), the MIC [2] was 0.05 µg/mL (≈ 0.0681 µM) and the MIC [3] was 0.025 µg/mL (≈ 0.0341 µM). For the same compound, the MIC [4] was 0.025 µg/mL (≈ 0.0341 µM), the MIC [5] was 0.1 µg/mL (≈ 0.136 µM) and the MIC [6] was 0.1 µg/mL (≈ 0.136 µM). The MIC [7] was 3 µg/mL (≈ 4.09 µM), the MIC [8] was 1.5 µg/mL (≈ 2.04 µM) and the MIC [9] was 0.1 µg/mL (≈ 0.136 µM). It also gave an MIC [10] of 0.01 µg/mL (≈ 0.0136 µM), an MIC [11] of 0.025 µg/mL (≈ 0.0341 µM) and an MIC [12] of 0.05 µg/mL (≈ 0.0681 µM). The MIC [13] was 0.4 µg/mL (≈ 0.545 µM), the MIC [14] was 0.4 µg/mL (≈ 0.545 µM) and the MIC [15] was 3 µg/mL (≈ 4.09 µM). For the same compound, the MIC [16] was 12 µg/mL (≈ 16.4 µM), the MIC [17] was > 200 µg/mL and the MIC [18] was > 200 µg/mL. For the same compound, the MIC [19] was 100 µg/mL (≈ 136 µM), the MIC [20] was 100 µg/mL (≈ 136 µM) and the MIC [21] was > 200 µg/mL. It also gave an MIC [22] of 100 µg/mL (≈ 136 µM), an MIC [23] of 100 µg/mL (≈ 136 µM) and an MIC [24] of 100 µg/mL (≈ 136 µM). The MIC [25] was 50 µg/mL (≈ 68.1 µM), the MIC [26] was 100 µg/mL (≈ 136 µM) and the MIC [27] was 50 µg/mL (≈ 68.1 µM). For the same compound, the MIC [28] was > 200 µg/mL, the MIC [29] was > 200 µg/mL and the MIC [30] was 50 µg/mL (≈ 68.1 µM). It also gave an MIC [31] of 50 µg/mL (≈ 68.1 µM), an MIC [32] of 100 µg/mL (≈ 136 µM) and an MIC [33] of 200 µg/mL (≈ 273 µM). The MIC [34] was 0.01 µg/mL (≈ 0.0136 µM), the MIC [35] was 0.05 µg/mL (≈ 0.0681 µM) and the MIC [36] was 0.8 µg/mL (≈ 1.09 µM). It also gave an MIC [37] of 0.8 µg/mL (≈ 1.09 µM), an MIC [38] of 1.5 µg/mL (≈ 2.04 µM) and an MIC [39] of 0.4 µg/mL (≈ 0.545 µM). The MIC [40] was 100 µg/mL (≈ 136 µM), the MIC [41] was 0.4 µg/mL (≈ 0.545 µM) and the MIC [42] was 0.4 µg/mL (≈ 0.545 µM). For the same compound, the LD50 at 240 h [43] was > 3000 mg/kg, the ED50 [44] was 2.09 mg/kg and the ED50 [45] was 114 mg/kg. For the same compound, the “Hematic levels in the rat” value ([46]; 2 hours, 120 min) was 1.15 µg/mL, the “Hematic levels in the rat” value ([46]; 6 hours, 360 min) was 0.03 µg/mL and the concentration at 0.3 h ([46]; rat, blood, po, Hematic levels in the rat, 0.30 hours) was 710 ng/mL. It also gave a concentration at 1 h ([46]; rat, blood, po, Hematic levels in the rat, 1 hour) of 1030 ng/mL, a concentration at 3 h ([46]; rat, blood, po, Hematic levels in the rat, 3 hours) of 1050 ng/mL and a concentration at 4 h ([46]; rat, blood, po, Hematic levels in the rat, 4 hours) of 370 ng/mL. The concentration at 5 h ([46]; rat, blood, po, Hematic levels in the rat, 5 hours) was 260 ng/mL.
